Source: ChEMBL document CHEMBL1147859, “Thienopyrimidinone bis-aminopyrrolidine ureas as potent melanin-concentrating hormone receptor-1 (MCH-R1) antagonists” (Bioorg Med Chem Lett, 2007)
Blank lines part the entries; values can stand above or below the compound they belong to.

Tests used:
[1] = biological target: T1, Melanin-concentrating hormone receptor 1 (Homo sapiens, UniProt Q99705); assay: Binding affinity to human MCHR1
[2] = biological target: T1, Melanin-concentrating hormone receptor 1; assay: Antagonist activity at human MCHR1 by [35S]GTP-gamma-S binding assay; format: functional
CYP2D6 = CYP2D6 (Homo sapiens, UniProt P10635); assay: Inhibition of CYP2D6 at 120 uM; format: ADME
CYP2D6, sequence (P10635 whole entry): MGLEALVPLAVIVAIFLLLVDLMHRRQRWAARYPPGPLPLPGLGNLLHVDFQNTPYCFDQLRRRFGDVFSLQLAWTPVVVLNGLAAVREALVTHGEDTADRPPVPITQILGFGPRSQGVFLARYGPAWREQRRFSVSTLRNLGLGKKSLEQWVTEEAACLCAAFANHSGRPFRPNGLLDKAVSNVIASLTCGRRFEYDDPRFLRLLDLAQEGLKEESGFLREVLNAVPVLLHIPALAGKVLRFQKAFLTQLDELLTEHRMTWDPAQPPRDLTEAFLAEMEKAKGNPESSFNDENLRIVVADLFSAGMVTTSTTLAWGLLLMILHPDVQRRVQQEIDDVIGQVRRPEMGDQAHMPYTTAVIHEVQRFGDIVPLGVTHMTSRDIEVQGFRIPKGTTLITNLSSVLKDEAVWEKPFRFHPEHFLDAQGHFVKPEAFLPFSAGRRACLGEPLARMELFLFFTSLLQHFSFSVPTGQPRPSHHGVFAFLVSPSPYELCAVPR

[3] = Intrinsic clearance in human liver microsome; format: ADME; settings: liver microsomes
Cytochrome P450 2D6 = Cytochrome P450 2D6 (Homo sapiens, UniProt P10635); assay: Inhibition of CYP2D6; format: ADME; settings: for Activity: human
Cytochrome P450 2D6, sequence (P10635 whole entry): as above

T1 sequence (Q99705 whole entry): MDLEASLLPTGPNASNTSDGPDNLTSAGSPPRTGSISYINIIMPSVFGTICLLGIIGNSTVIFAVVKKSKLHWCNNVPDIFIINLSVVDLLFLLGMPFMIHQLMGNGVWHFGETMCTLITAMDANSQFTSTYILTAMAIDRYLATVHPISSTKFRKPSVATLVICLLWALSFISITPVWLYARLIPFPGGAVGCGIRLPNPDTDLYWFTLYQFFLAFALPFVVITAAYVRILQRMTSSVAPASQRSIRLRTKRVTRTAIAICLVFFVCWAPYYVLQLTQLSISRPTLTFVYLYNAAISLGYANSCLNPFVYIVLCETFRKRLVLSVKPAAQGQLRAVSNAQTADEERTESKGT

Compound: CN(C(=O)N1CC[C@@H](n2cnc3cc(-c4ccc(Cl)cc4)sc3c2=O)C1)[C@H]1CCN(C2CCOCC2)C1
Ki [1]: 154 nM

Compound: CN(C(=O)N1CC[C@H](n2cnc3cc(-c4ccc(Cl)cc4)sc3c2=O)C1)[C@H]1CCN(Cc2ccoc2)C1
Ki [1]: 4 nM
IC50 [2]: 15 nM

Compound: CN(C(=O)N1CC[C@@H](n2cnc3cc(-c4ccc(Cl)cc4)sc3c2=O)C1)[C@@H]1CCN(C2CCOCC2)C1
Ki [1]: 69 nM

Compound: CN(C(=O)N1CCC(n2cnc3cc(-c4ccc(Cl)cc4)sc3c2=O)C1)[C@@H]1CCN(C2CCOCC2)C1 (single isomer, unassigned)
Ki [1]: 21 nM

Compound: CN(C(=O)N1CC[C@H](n2cnc3cc(-c4ccc(Cl)cc4)sc3c2=O)C1)[C@H]1CCN(CC2CCCCC2)C1
Ki [1]: 50 nM
IC50 [2]: 53 nM

Compound: CN(C(=O)N1CC[C@H](n2cnc3cc(-c4ccc(Cl)cc4)sc3c2=O)C1)[C@H]1CCN(CCCc2ccccc2)C1
Ki [1]: 6 nM
IC50 (Cytochrome P450 2D6): 8600 nM
CLint scaled [3]: 41 mL/min/kg
IC50 [2]: 31 nM

Compound: CCOc1ccc(-c2cc3ncn([C@H]4CCN(C(=O)N(C)[C@H]5CCN(C6CCOCC6)C5)C4)c(=O)c3s2)c(Cl)c1
Ki [1]: 14 nM

Compound: CN(C(=O)N1CC[C@H](n2cnc3cc(-c4ccc(Cl)cc4)sc3c2=O)C1)[C@H]1CCN(C2CCC(C)(C)CC2)C1
Ki [1]: 2 nM
IC50 (Cytochrome P450 2D6): 3400 nM
IC50 [2]: 10 nM

Compound: CCc1ccc(-c2cc3ncn([C@H]4CCN(C(=O)N(C)[C@H]5CCN(C6CCOCC6)C5)C4)c(=O)c3s2)cc1
Ki [1]: 8 nM
Activity (Cytochrome P450 2D6): 57 µM
CLint scaled [3]: 85 mL/min/kg

Compound: CN(C(=O)N1CC[C@H](n2cnc3cc(-c4ccc(Cl)cc4)sc3c2=O)C1)[C@H]1CCN(CC2CCOCC2)C1
Ki [1]: 7 nM
IC50 [2]: 11 nM

Compound: Cc1ccc(-c2cc3ncn([C@H]4CCN(C(=O)N(C)[C@H]5CCN(C6CCOCC6)C5)C4)c(=O)c3s2)c(C)c1
Ki [1]: 70 nM

Compound: CN(C(=O)N1CC[C@H](n2cnc3cc(-c4ccc5c(c4)OCCO5)sc3c2=O)C1)[C@H]1CCN(C2CCOCC2)C1
Ki [1]: 45 nM

Compound: COc1ccc(-c2cc3ncn([C@H]4CCN(C(=O)N(C)[C@H]5CCN(C6CCOCC6)C5)C4)c(=O)c3s2)c(C)c1
Ki [1]: 28 nM

Compound: CN(C(=O)N1CC[C@H](n2cnc3cc(-c4ccc(Cl)cc4)sc3c2=O)C1)[C@H]1CCN(C2CCOCC2)C1
Ki [1]: 3 nM
IC50 (Cytochrome P450 2D6): 22500 nM
CLint scaled [3]: 24 mL/min/kg
IC50 [2]: 23 nM

Compound: CN(C(=O)N1CC[C@H](n2cnc3cc(-c4ccc(Cl)cc4)sc3c2=O)C1)[C@H]1CCN(CCC2CCOCC2)C1
Ki [1]: 7 nM
IC50 [2]: 11 nM

Other lines, results leading:

Ki [1]: 3 nM
IC50 [2]: 10 nM
Compound: CN(C(=O)N1CC[C@H](n2cnc3cc(-c4ccc(Cl)cc4)sc3c2=O)C1)[C@H]1CCN(CC2CC2)C1

Ki [1]: 46 nM
Compound: COc1ccc(-c2cc3ncn([C@H]4CCN(C(=O)N(C)[C@H]5CCN(C)C5)C4)c(=O)c3s2)c(C)c1

Ki [1]: 17 nM
IC50 [2]: 29 nM
Compound: CN(C(=O)N1CC[C@H](n2cnc3cc(-c4ccc(Cl)cc4)sc3c2=O)C1)[C@H]1CCNC1

Ki [1]: 17 nM
IC50 [2]: 44 nM
Compound: CN(C(=O)N1CC[C@H](n2cnc3cc(-c4ccc(Cl)cc4)sc3c2=O)C1)[C@H]1CCN(CC(=O)C(C)(C)C)C1

Ki [1]: 80 nM
Compound: CN(C(=O)N1CC[C@H](n2cnc3cc(-c4ccc(Cl)cc4)sc3c2=O)C1)[C@H]1CCN(CC(=O)c2ccc(OC(F)(F)F)cc2)C1

Ki [1]: 17 nM
Compound: CN1CC[C@H](N(C)C(=O)N2CC[C@H](n3cnc4cc(-c5ccc(C(F)(F)F)cc5)sc4c3=O)C2)C1

Ki [1]: 15 nM
Compound: Cc1ccc(-c2cc3ncn([C@H]4CCN(C(=O)N(C)[C@H]5CCN(C)C5)C4)c(=O)c3s2)cc1

Ki [1]: 26 nM
Compound: CCOc1ccc(-c2cc3ncn([C@H]4CCN(C(=O)N(C)[C@H]5CCN(C)C5)C4)c(=O)c3s2)c(Cl)c1

Ki [1]: 143 nM
Compound: CN1CC[C@H](N(C)C(=O)N2CC[C@H](n3cnc4cc(-c5ccc6c(c5)OCCO6)sc4c3=O)C2)C1

inhibition at 120 µM (CYP2D6): 42%
Ki [1]: 5 nM
CLint scaled [3]: 200 mL/min/kg
Compound: CCc1ccc(-c2cc3ncn([C@H]4CCN(C(=O)N(C)[C@H]5CCN(C)C5)C4)c(=O)c3s2)cc1

Ki [1]: 14 nM
Compound: Cc1ccc(-c2cc3ncn([C@H]4CCN(C(=O)N(C)[C@H]5CCN(C6CCOCC6)C5)C4)c(=O)c3s2)cc1

Ki [1]: 19 nM
Compound: CN(C(=O)N1CC[C@H](n2cnc3cc(-c4ccc(C(F)(F)F)cc4)sc3c2=O)C1)[C@H]1CCN(C2CCOCC2)C1

Ki [1]: 1 nM
IC50 [2]: 9 nM
Compound: CN(C(=O)N1CC[C@H](n2cnc3cc(-c4ccc(Cl)cc4)sc3c2=O)C1)[C@H]1CCN(C2CCC2)C1

Ki [1]: 5 nM
IC50 [2]: 23 nM
Compound: CC(C)N1CC[C@H](N(C)C(=O)N2CC[C@H](n3cnc4cc(-c5ccc(Cl)cc5)sc4c3=O)C2)C1

Ki [1]: 49 nM
Compound: Cc1ccc(-c2cc3ncn([C@H]4CCN(C(=O)N(C)[C@H]5CCN(C)C5)C4)c(=O)c3s2)c(C)c1

Ki [1]: 4 nM
IC50 [2]: 10 nM
Compound: CN(C(=O)N1CC[C@H](n2cnc3cc(-c4ccc(Cl)cc4)sc3c2=O)C1)[C@H]1CCN(CC2CCOC2)C1 (some centres not stated)

Ki [1]: 4 nM
IC50 [2]: 13 nM
Compound: CN(C(=O)N1CC[C@H](n2cnc3cc(-c4ccc(Cl)cc4)sc3c2=O)C1)[C@H]1CCN(C2CCCC2)C1

Ki [1]: 39 nM
Compound: CN1CC[C@H](N(C)C(=O)N2CC[C@H](n3cnc4cc(-c5ccc(OC(F)(F)F)cc5)sc4c3=O)C2)C1

Ki [1]: 21 nM
Compound: COc1ccc(-c2cc3ncn([C@H]4CCN(C(=O)N(C)[C@H]5CCN(C)C5)C4)c(=O)c3s2)cc1

Ki [1]: 10 nM
Activity (Cytochrome P450 2D6): 99 µM
CLint scaled [3]: 16 mL/min/kg
IC50 [2]: 20 nM
Compound: CN1CC[C@H](N(C)C(=O)N2CC[C@H](n3cnc4cc(-c5ccc(Cl)cc5)sc4c3=O)C2)C1

Ki [1]: 18 nM
Compound: CN(C(=O)N1CC[C@H](n2cnc3cc(-c4ccc(OC(F)(F)F)cc4)sc3c2=O)C1)[C@H]1CCN(C2CCOCC2)C1
